The values that follow come from PMC2765047 (Journal of medicinal chemistry, 2009).

pEC50: −log10 of the molar value. Like-named read-outs stand apart in the source and are kept apart here. Bounds are passed on as bounds.

One data set deals with HCMV. The note with it: ref [1]; cited from earlier work.
A short description of data set [1]: Cytotoxicity by neutral red uptake. As to conditions: human. The class given is cell-based.
A short description of data set [2]: Visual cytotoxicity in uninfected HFF's used in plaque reduction assays. The note with it: human. The class given is cell-based.
The subject of data set [3] is HFF cells. The note with it: read-out: CC50 HCMV/HFF AD169; cytotoxicity by neutral red uptake; ref [2]; cited from earlier work.
For the next data set, the system named is HCMV Towne. The data set is described as follows: HCMV plaque reduction assay, Towne strain, in HFF cells. The format is cell-based, human cytomegalovirus (HCMV). As to conditions: Human betaherpesvirus 5, HFF, read-out: EC50 Virus Strain Towne. A general note: Plaque reduction counts the foci of infection that form in a cell layer.
The subject of data set [4] is HFF cells. The note with it: read-out: CC50 HCMV/HFF Towne; visual cytotoxicity in uninfected HFF's; ref [2]; cited from earlier work.
In another data set the test system is Akata cells. As to conditions: read-out: CC50 EBV/Akata, ref [28]; cited from earlier work.
Another data set has as its system HSV-1. Description: HSV-1 antiviral assay. The class given is cell-based, herpes simplex virus 1. As to conditions: human foreskin fibroblast (HFF) culture.
Another data set in a line: in vitro. The class given is cell-based. As to conditions: human.
The subject of another data set is HSV-2. The data set is described as follows: HSV-2 antiviral assay. The class given is cell-based, herpes simplex virus 2. As to conditions: human foreskin fibroblast (HFF) culture.
Another data set has as its target T1, ADA from calf intestine (Bos taurus, UniProt P56658).
T1 sequence (P56658 1-363): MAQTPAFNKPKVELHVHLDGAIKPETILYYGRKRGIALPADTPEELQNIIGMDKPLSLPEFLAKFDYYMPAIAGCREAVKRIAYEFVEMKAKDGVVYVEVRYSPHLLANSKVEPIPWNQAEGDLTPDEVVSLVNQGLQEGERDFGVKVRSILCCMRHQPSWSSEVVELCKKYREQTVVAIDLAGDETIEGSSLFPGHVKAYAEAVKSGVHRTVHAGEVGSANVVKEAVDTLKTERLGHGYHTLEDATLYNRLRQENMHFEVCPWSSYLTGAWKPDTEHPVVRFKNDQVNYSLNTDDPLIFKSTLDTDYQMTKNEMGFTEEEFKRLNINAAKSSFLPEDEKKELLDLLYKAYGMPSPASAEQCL
Description: Adenosine deaminase. The format is biochemical.

As to `Nc1nc(O)c2ncn(/C=C3/CC3CO)c2n1` (centres unmarked) [Compound 1b], the “activity against HCMV (in words)” value with HCMV is given as “highly effective”.
Regarding `Nc1ncnc2c1ncn2/C=C1\C[C@@H]1[C@@H](O)CO` [Compound 15a], the CC50 in [1] was more than 300 µM; in data set [2], more than 100 µM.
In the case of `Nc1ncnc2c1ncn2C=C1CC1(CO)CO` [Compound 3a], the “activity against HCMV (in words)” value in the data set on HCMV is given as “effective”.
For the molecule `Nc1c2ncnc-2ncn1/C=C1\CC1CO` (centres unmarked) [Compound 1a, synadenol], the “activity against HCMV (in words)” value in the data set on HCMV was “effective”.
For the molecule `Nc1ncnc2c1ncn2/C=C1/C[C@@H]1[C@@H](O)CO` [Compound 14a], in data set [2], the CC50 was more than 100 µM.
`Nc1ncnc2c1ncn2/C=C1\C[C@H]1[C@@H](O)CO` [ent-13a] came in with a CC50 in data set [2] of more than 100 µM.
Consider `Nc1nc2c(ncn2/C=C2/C[C@@H]2[C@@H](O)CO)c(=O)[nH]1` [Compound 14b], for which the CC50 in data set [1] was more than 300 µM; in data set [2] it was more than 100 µM.
One may read the pEC50 as the EC50 on a negative log10 scale, so that one unit is a factor of ten. In the case of `Nc1nc2c(ncn2/C=C2/CC2(CO)CO)c(=O)[nH]1` [Compound 3b, cyclopropavir], the “activity against HCMV (in words)” value in the data set on HCMV is given as “highly effective”. For the same molecule, the CC50 was more than 100 µM with HFF cells [3], more than 100 µM in the data set on HFF cells [4] and 46 µM in the data set on Akata cells. In the data set with HCMV Towne, the pEC50 is 6.22.
Turning to `Nc1nc2c(ncn2/C=C2\C[C@@H]2[C@@H](O)CO)c(=O)[nH]1` [Compound 15b], the CC50 was more than 300 µM in data set [1] and more than 100 µM in data set [2].
Consider `Nc1nc2c(ncn2/C=C2/C[C@H]2[C@@H](O)CO)c(=O)[nH]1` [ent-12b], for which the “activity against HSV-1 (in words)” value in the data set on HSV-1 is “inactive”. Also, the CC50 in “in vitro” was 284 µM. The “activity against HSV-2 (in words)” value in the data set with HSV-2 is “inactive”.
Regarding `Nc1nc2c(ncn2/C=C2\C[C@H]2[C@@H](O)CO)c(=O)[nH]1` [ent-13b], the CC50 in data set [2] was more than 100 µM.
Turning to `Nc1nc2c(ncn2COC(CO)CO)c(=O)[nH]1` [Ganciclovir, ganciclovir], the pEC50 with HCMV Towne is 5.70.
Molecule `Nc1ncnc2c1ncn2/C=C1\C[C@@H]1[C@H](O)CO` [Compound 13a] registered a CC50 in data set [1] of more than 300 µM.
As to `Nc1ncnc2c1ncn2/C=C1/C[C@@H]1[C@H](O)CO` [Compound 12a], the results for the CC50 in data set [1] and in data set [2] were more than 300 µM and more than 100 µM, respectively.
On to `Nc1nc2c(ncn2/C=C2\C[C@@H]2[C@H](O)CO)c(=O)[nH]1` [Compound 13b], for which the CC50 in data set [2] is more than 100 µM.
In data set [2], `Nc1ncnc2c1ncn2/C=C1\C[C@H]1[C@H](O)CO` [ent-15a] yielded a CC50 of more than 100 µM.
With `Nc1nc2c(ncn2/C=C2/C[C@@H]2[C@H](O)CO)c(=O)[nH]1` [Compound 12b, (+)-9-{(Z)-{(S)-2-[(S)-1,2-Dihydroxyethyl)cyclopropylidene]methyl}guanine], the CC50 in data set [1] is more than 300 µM; in [2], more than 100 µM.
In the same order, the values of `Nc1nc2c(ncn2/C=C2/C[C@H]2[C@H](O)CO)c(=O)[nH]1` [ent-14b] are more than 300 µM and more than 300 µM.
As for `Nc1ncnc2c1ncn2/C=C1/C[C@H]1[C@H](O)CO` [ent-14a], the “substrate activity toward ADA (in words)” value on ADA from calf intestine is on record as “resistant to deamination”. Moreover, the CC50 in data set [2] was more than 100 µM.
Regarding `Nc1ncnc2c1ncn2/C=C1/C[C@H]1[C@@H](O)CO` [ent-12a], the “substrate activity toward ADA (in words)” value at ADA from calf intestine is “resistant to deamination”. The values for the CC50 in data set [1] and in data set [2] were 194 µM and more than 100 µM, respectively.
